Patent US9862792B2, “Diblock copolymers and polynucleotide complexes thereof for delivery into cells” (University of Washington, priority 2008, dated 2018)

Assays:
[1] = tested on: caspase 3/7; test: Caspase 3/7 activity assay in HeLas; type: cell-based, human; settings: HeLa, 30 minutes, 25 μM peptide or equivalent polymer; relative to no treatment
Procedure: Caspase 3/7 Activity Assay. Caspase 3/7 activation was measured using a commercially available assay kit. This assay utilizes a profluorescent caspase 3/7 substrate that once enzymatically cleaved becomes fluorescent allowing for determination of relative enzyme activity using a fluorescent plate reader. Here, HeLas were incubated for 30 minutes with 25 μM peptide (alone or as polymer conjugate) in addition to polymer alone in a quantity equivalent to the conjugate samples. Afterwards, a caspase 3/7 fluorigenic indicator was added directly to the culture media for each sample. Plates were shaken for 1 hour and then assayed using a fluorescent plate reader. Data were expressed as percent caspase activity relative to samples receiving no treatment.

[2] = tested on: mitochondrial membrane potential in HeLas; test: Flow cytometry of mitochondrial membrane potential (JC-1 dye); type: cell-based, human; settings: HeLa, 2 hours, 10 μM peptide or equivalent conjugate or polymer alone; versus no treatment
Procedure: Flow Cytometry Evaluation of Mitochondrial Membrane Potential. Loss of mitochondrial membrane potential, a known indicator for apoptosis, was assessed using the JC-1 dye. […] HeLas were incubated for 2 hours with 10 μM peptide or equivalent conjugate or polymer alone. JC-1 was added at a final concentration of 5 μg/mL and incubated for 15 minutes. Cells were washed 2 times with PBS, trypsinized, and resuspended in 0.5% BSA for flow cytometric analysis. Percent of cells displaying mitochondrial depolarization was quantified based on the number of green fluorescent cells that were negative for red fluorescence. Here, a significant loss of red fluorescent JC-1 aggregates and therefore a loss in mitochondrial polarization was detected following treatment with both the Antp-BH3 peptide and the polymer peptide conjugate (FIG. 21 A).

## NH2-RQIKIWFQNRRMKWKKMGQVGRQLAIIGDDINRRYDSC-COOH (H-RQIKIWFQNRRMKWKKMGQVGRQLAIIGDDINRRYDSC-OH) [Antp-BH3]
[1]
  caspase 3/7 activation: approximately 2.5 fold
[2]
  increase in percent of cells exhibiting loss of mitochondrial polarity: approximately 4 fold
